The results in this text go back to ChEMBL document CHEMBL1127700, “Iron(III)-chelating resins. IX. Antibacterial activity of a water-insoluble iron(III)-chelating resin” (1994).

One test deals with Listeria innocua. The test can be described thus: Tested in vitro for percent inhibition of the growth of Listeria inocua at concentration of 20 uM. The format is functional.
The subject of another test is Escherichia coli. The test can be described thus: Tested in vitro for percent inhibition of the growth of Escherichia coli at concentration of 20 uM. The format is functional.

Take `CCC(=O)NCCn1ccc(=O)c(O)c1C`: the Growth response with Listeria innocua worked out at 14%; with Escherichia coli, 0%.

For the molecule `C=CC(=O)NCCn1ccc(=O)c(O)c1C`, the Growth response was 13% in the test with Listeria innocua and 0% with Escherichia coli.
